What was measured:
vitamin D receptor (VDR) = target: T1, vitamin D receptor (VDR) (Sus scrofa, UniProt A3RGC1); assay: Affinity for vitamin D receptor: competition with [3H]1α,25(OH)2D3; format: binding; settings: pig intestinal mucosa supernatant, 4° C. 20 hours; 1α,25(OH)2D3 = 100%
T1 construct: high speed supernatant from intestinal mucosa homogenates obtained from normal pigs; from tissue; host or cells: pig intestinal mucosa (high speed supernatant of homogenate)
T1 sequence (A3RGC1 1-427): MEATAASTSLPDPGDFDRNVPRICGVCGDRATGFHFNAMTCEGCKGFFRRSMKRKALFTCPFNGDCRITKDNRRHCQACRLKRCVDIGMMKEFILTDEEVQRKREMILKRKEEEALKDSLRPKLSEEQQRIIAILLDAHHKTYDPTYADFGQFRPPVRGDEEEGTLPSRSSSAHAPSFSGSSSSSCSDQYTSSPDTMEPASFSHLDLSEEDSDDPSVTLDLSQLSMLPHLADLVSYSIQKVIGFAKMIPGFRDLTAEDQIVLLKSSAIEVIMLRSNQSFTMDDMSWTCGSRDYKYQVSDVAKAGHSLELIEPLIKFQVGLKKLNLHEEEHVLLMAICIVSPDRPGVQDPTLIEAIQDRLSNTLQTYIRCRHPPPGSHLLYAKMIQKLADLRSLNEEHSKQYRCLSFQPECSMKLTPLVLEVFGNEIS
Protocol: The methods used herein to evaluate the binding properties of vitamin D analogues are state of the art techniques used for steroid hormone (including vitamin D) binding assays. […] Incubation was performed at 4° C. for 20 hours and phase separation was obtained by addition of dextran-coated charcoal.

[1] = target: T2, human vitamin D binding protein (hDBP) (Homo sapiens, UniProt P02774); assay: Affinity for human vitamin D binding protein; settings: hDBP 0.18 μM, 4° C. 3 hours; 1,25(OH)2D3 = 100
T2 sequence (P02774 17-474): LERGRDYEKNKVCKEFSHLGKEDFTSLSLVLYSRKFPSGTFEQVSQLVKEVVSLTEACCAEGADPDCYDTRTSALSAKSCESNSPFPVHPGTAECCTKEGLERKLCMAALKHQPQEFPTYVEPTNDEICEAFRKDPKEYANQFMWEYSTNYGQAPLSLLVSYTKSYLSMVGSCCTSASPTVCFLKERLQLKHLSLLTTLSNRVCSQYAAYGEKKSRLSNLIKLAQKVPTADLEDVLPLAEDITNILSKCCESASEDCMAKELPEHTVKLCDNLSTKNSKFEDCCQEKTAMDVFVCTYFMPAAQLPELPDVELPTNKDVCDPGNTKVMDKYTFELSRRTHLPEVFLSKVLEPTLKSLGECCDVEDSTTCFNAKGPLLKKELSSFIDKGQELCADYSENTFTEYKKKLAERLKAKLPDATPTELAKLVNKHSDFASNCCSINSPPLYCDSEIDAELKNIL
Protocol: Binding of 1α,25(OH)2D3 analogues to hDBP was performed at 4° C. […] Phase separation was then obtained by the addition of 0.5 ml of cold dextran-coated charcoal.

NMRI mice = assay: In vivo activity: serum and femur calcium after 7 daily i.p. injections; settings: dose 0.2 μg/kg/d i.p., 7 days; * in cell = P < 0.05
Protocol: Eight weeks old, male NMRI mice were fed a vitamin D-replete diet (0.2% calcium, 1% phosphate, 2000 U vitamin D/kg; Hope Farms, Woerden, The Netherlands). Groups of six mice were intraperitoneally injected daily during 7 consecutive days with different doses of 1,25(OH)2D3 (0.2 and 0.4 μg/kg/day) or analogues. The control group was injected with vehicle (arachis oil). The average weight of each group of 6 mice was determined at the beginning and at the end of the experiment. The following parameters were evaluated: serum calcium and femur calcium. Serum calcium was measured by a microcolorimetric assay (Sigma, St. Louis, Mo.). Femurs were removed and femur calcium content was measured in HCl-dissolved bone ash (obtained by heating for 24 hours in an oven at 100° C.), using the same technique as for serum calcium. Student's t-tests were carried out to detect significant differences; p<0.05 was accepted as significant. […]

[2] = tested on: OVX or SHAM C3H female mice; assay: Restoration of bone loss in ovariectomized mice, oral treatment started 3 weeks after surgery; format: in vivo; settings: 8 weeks
Protocol: 12-week-old C3H female mice were subjected to bilateral ovariectomy (OVX) or sham surgery SHAM (time point −3). The OVX and SHAM animals were treated with the vitamin D analogue MV2 (1 μg/kg three times per week) or vehicle (arachis oil) by oral gavage. Dosing was started 3 weeks after surgery (time point 0) and was continued for 8 weeks (time point 8). The number of mice per group is 8 to 10.
Before the surgery and 3 weeks after ovariectomy in vivo, measurements were performed in order to determine bone mineral density (BMD), bone mineral content (BMC) of total body and spine by DEXA. Before the surgery and 3 weeks after ovariectomy, serum was collected to measure calcium levels by a standard […] method (Synchron CX4, Beckman Instruments, USA). The animals were weighted regularly during the experimental period to monitor their overall health and well being. After 4 weeks treatment, serum was again collected and biochemical parameters were determined. At the end of the experiment (8 weeks of treatment) bone mineral density (BMD) and bone mineral content (BMC) of total body and spine were measured by DEXA and serum was collected to determine serum calcium levels. […] Tibiae were used for histomorphometric analysis, and femurs for measurement of cortical and trabecular volumetric density and geometry by peripheral quantitative computed tomography (PQCT) ex vivo. […]

C[C@H](CC#CC(O)(C(F)(F)F)C(F)(F)F)[C@@]1(C)CC[C@@H](/C=C/C=C2C[C@@H](O)C[C@H](O)C2)C1(C)C [MV2, (1R,3R)-5-((E)-3-((1S,3R)-3-((1R)-6,6,6-trifluoro-5-hydroxy-1-methyl-5-trifluoromethyl-3-hexynyl)-2,2,3-trimethylcyclopentyl)-2-propenylidene)cyclohexane-1,3-diol]
VDR (relative affinity) (vitamin D receptor (VDR)): 50% | DBP (relative affinity) [1]: 7% | Serum calcium vs. control (%) (NMRI mice): 97% | femur calcium vs. control (%) (NMRI mice): 112* % | hypercalcemic effects (serum calcium) ([2]; 1 pg/kg three times per week (so in the source)): no hypercalcemic effects | body weight during treatment ([2]; 1 μg/kg p.o. three times per week): no animals lost weight

— patent publication US7704986B2, “Vitamin D3 analogues for the prevention and treatment of bone disorders” (K.U. Leuven Research and Development, priority 2004, dated 2010)
